In US20230257385A1, “SALT AND SOLID FORMS OF TABERNANTHALOG” (priority 2021, published 2023):

Experiments:
[1] = Heat-up/cool-down crystallisation screen of sorbate salt (Example 10, Experiments 5, 8); format: physicochemical; conditions: Experiment 5
Experimental: The relevant solvent (0.225 ml, 3.0 vol) was added to the appropriate vial and the suspensions were stirred and warmed to temperature. If dissolution was not observed, further solvent was added until the solute dissolved, or aliquots of a secondary co-solvent were added to complete dissolution. Once dissolved, the solutions were left to cool down and stand undisturbed under sub-ambient conditions for several days. After crystallisation was judged complete, the products were isolated by centrifugation and the pellets were dried at 40° C. under reduced pressure. Products from the crystallisation (wet and dry) were initially analysed by XRPD (9-minute method), further analyses of certain products were performed by ^1H NMR, DSC and TGA, if the diffraction pattern indicated differences.

[2] = Solubility determinations in SIF buffers FaSSIF, FeSSIF, FaSSGF (Example 8, Experiment 5); conditions: tabernanthalog sorbate salt, 37° C.
Experimental: The temperature was maintained at 37° C. for 24 h. […] The suspensions were sampled at the relevant time points and centrifuged. The centrifuged pellets, obtained at the time points were analysed by XRPD as a wet pellet and dried, for evidence of form change.
The temperature was maintained at 37° C. for 24 h.
The suspension was sampled at the relevant time points and centrifuged. […] The centrifuged pellets, obtained at the time points were analyzed by XRPD as a wet pellet and dried, for evidence of form change.

## CC=CC=CC(=O)O.COc1ccc2c3c([nH]c2c1)CCN(C)CC3 [Experiment 5-Sample A]
[1]; Tabernanthalog sorbate salt (Form A) crystallised from binary solvents, solvent A 3.0 vol plus solvent B, one pair per sample
  Observations (t = 1 @ T = 20° C.): Partial
[1]; heat-up/cool-down crystallisation from binary solvents, oven dried 40° C., 20 h
  XRPD (oven dried @ 40° C., 20 h): Form A
[1]; heat-up/cool-down crystallisation from binary solvents, wet pellet
  XRPD (centrifuged, wet): Form A

## C/C=C/C=C/C(=O)O.COc1ccc2c3c([nH]c2c1)CCN(C)CC3 [Sample 5-L1]
[2]; t = 1 h in FaSSGF
  Tabernanthalog RRT = 1.00 (trended HPLC data, chemical purity): 99.52

## C/C=C/C=C/C(=O)O.COc1ccc2c3c([nH]c2c1)CCN(C)CC3 [Sample 5-L4]
[2]; t = 3 h in FaSSGF
  Tabernanthalog RRT = 1.00 (trended HPLC data, chemical purity): 99.36

## C/C=C/C=C/C(=O)O.COc1ccc2c3c([nH]c2c1)CCN(C)CC3 [Sample 5-L7]
[2]; t = 6 h in FaSSGF
  Tabernanthalog RRT = 1.00 (trended HPLC data, chemical purity): 99.30
